Measurements published in publication PMC11054274, “Dual Antitubercular and Antileishmanial Profiles of Quinoxaline Di-N-Oxides Containing an Amino Acidic Side Chain” (Pharmaceuticals, 2024).
Like-named read-outs stand apart in the source and are kept apart here.

Assays:
[1] = tested on: Leishmania amazonensis amastigotes; experiment: Intracellular amastigote assay in J774 macrophages, L. amazonensis; type: cell-based; conditions: Table S3; intracellular amastigotes, 48 h; read-out: L. amazonensis IC50 (amastigote)
Protocol: We performed an intracellular amastigote assay on L. amazonensis and L. donovani according to a fluorometric method reported by us. To carry out the in vitro macrophage infections, 5 × 10^4 cells were cultured in RPMI-1640 medium and then were infected with 5 × 10^5 promastigotes. In the L. donovani assays, the plates were incubated for 48 h at 37 °C, while in the L. amazonensis assays, they were incubated at 33 °C for the first 24 h and then the temperature was increased to 37 °C for the next 24 h. After, the culture medium was removed and the cells were washed with buffered RPMI-HEPES at pH 7.4 several times in order to eliminate the non-internalized promastigotes. A total of 100 µL of fresh medium tempered at 37 °C was added to the infected cells, which then were exposed to 100 µL of the test compounds in RPMI-1640 at different concentrations (100, 50, 25, 12.5, 6.25, 3.12, 1.56 and 0.78 µg/mL in a final volume of 200 µL) for 48 h at 37 °C. The culture medium was removed by centrifugation at 3500 rpm for 5 min (Centrifuge 5403 Eppendorf) and a lysis solution (0.02% sodium dodecyl sulfate in RPMI-HEPES) was added. After 20 min, the treated cells were harvested (centrifugation at 3500 rpm for 5 min at 4 °C) and the supernatants were replaced by 200 μL of fresh Schneider’s culture medium. The plates were then incubated at 26 °C for another 3 days to allow for the transformation of viable amastigotes into promastigotes and proliferation. Afterwards, 20 μL/well of 2.5 mM resazurin was added and incubated for another 3 h. Finally, URF was measured and IC50 was estimated as described above. All tests were carried out in triplicate. Miltefosine was used as the reference drug.

[2] = tested on: Leishmania donovani promastigotes; experiment: Promastigote susceptibility assay (resazurin), L. donovani; type: cell-based; conditions: for IC50: Table S2, 48 h; for IC50 / activity against L. donovani (in words): promastigotes
Protocol: (§1) The following species of Leishmania were used: L. donovani (MHOM/IN/80/DD8), which was purchased (ATCC, Manassas, VA, USA), and L. amazonensis (MHOM/Br/79/Maria), which was kindly provided by Prof. Alfredo Toraño (Instituto de Salud Carlos III, Madrid, Spain). Promastigotes were cultured in Schneider’s Insect Medium supplemented with 10% heat-inactivated Fetal Bovine Serum (FBS) (SIGMA-Merck, Madrid, Spain) and 1000 U/L of penicillin plus 100 mg/L of streptomycin in 25 mL culture flasks at 26 °C.
(§2) The activity of the compounds on Leishmania promastigotes was performed according to the method previously reported by us. Briefly, promastigotes (2.5 × 10^5 parasites/well) were cultured in 96-well plastic plates. The compounds were dissolved in dimethylsulfoxide (DMSO). Serial dilutions at 1:2 of the test compounds in fresh culture medium were performed (100, 50, 25, 12.5, 6.25, 3.12, 1.56 and 0.78 µg/mL) in a final volume of 200 µL; the solutions were then added to the parasite suspension. After an incubation period of 48 h at 26 °C, a volume of 20 μL of 2.5 mM resazurin solution in PBS was added and the plates were incubated for 3 h under the same conditions. Finally, the Relative Fluorescence Unit (RFU) (535ex–590em nm wavelength) was determined in a fluorimeter (Infinite 200 Tecan i-Control). Growth inhibition (%) was calculated by 100—[(RFU treated wells—RFU signal-to-noise)/(RFU untreated—RFU signal-to-noise) × 100]. All tests were carried out in triplicate and the IC50 was calculated by probit analysis using SPSS 17.0 Statistics Software. Miltefosine (Sigma-Merck, Madrid, Spain) was used as the reference drug.

[3] = tested on: Leishmania amazonensis promastigotes; experiment: Promastigote susceptibility assay (resazurin), L. amazonensis; type: cell-based; conditions: for IC50: Table S2, 48 h, read-out: L. amazonensis IC50 (promastigote); for IC50 / activity against L. amazonensis (in words): promastigotes; for L. amazonensis promastigote selectivity index (SI): SI = CC50 (J774 macrophages)/IC50
Protocol: as §1, §2

[4] = tested on: Mycobacterium tuberculosis H37Rv; experiment: In vitro activity against Mycobacterium tuberculosis H37Rv, microdilution AlamarBlue broth assay (BacTiter-Glo alternative read-out); type: cell-based; conditions: for IC90: read-out: IC90, antibacterial activity against Mtb H37Rv
J774 murine macrophages = experiment: Cytotoxicity assay on macrophages (resazurin); type: cell-based; conditions: for CC50: 24 h exposure, read-out: Toxicity against J774 macrophages CC50
Protocol: (§3) J774 murine macrophages were grown in RPMI-1640 medium (Sigma) supplemented with 10% heat-inactivated FBS (30 min at 56 °C) (SIGMA-Merck), penicillin G (100 U/mL) and streptomycin (100 µg/mL). For the experiments, cells in the pre-confluence phase were harvested with trypsin. Cell cultures were maintained at 37 °C in a humidified environment with 5% CO2.
(§4) Cell viability was evaluated using a modification with resazurin of the colorimetric method described previously. J774 macrophages were seeded (5 × 10^4 cells/well) in 96-well flat-bottom microplates with 100 µL of RPMI-1640 medium. The cells were allowed to adhere for 4 h at 37 °C in 5% CO2, then different concentrations of the test compounds in 100 µL of the medium were added and exposed for 24 h. Growth controls were also included. To evaluate cell viability, 20 µL of a 2.5 mM resazurin solution was added and the plates were returned to the incubator for another 3 h. The reduction in resazurin was determined by measuring the fluorescence intensity (excitation wavelength, 535 nm; emission wavelength, 590 nm). Each concentration was assayed three times. The medium and controls were used in each test as blanks. The cytotoxic effect of the compounds was defined as the 50% reduction in cell viability of treated culture cells with respect to the untreated culture (CC50).

[5] = Cytotoxicity assay on macrophages (resazurin); type: cell-based, murine; conditions: mouse, J774 macrophages, Table S2; 24 h exposure; read-out: Toxicity against J774 macrophages CC50
Protocol: as §3, §4

[6] = Table S1, Mtb H37Rv, read-out: IC50, antibacterial activity against Mtb H37Rv
[7] = Mycobacterium tuberculosis, Table S1, Mtb H37Rv, read-out: IC50, antibacterial activity against Mtb H37Rv
[8] = Mycobacterium tuberculosis, Table S1, Mtb H37Rv
[9] = Mycobacterium tuberculosis, H37Rv strain, read-out: IC50 against Mycobacterium tuberculosis H37Rv

Row | Molecule | IC50 [2] | IC50 [3] | IC50 [4, 6] | IC90 ([4]; Table S1, Mtb H37Rv) | CC50 (J774 murine macrophages; Table S2) | IC50 [4, 7] | IC90 [4, 8] | also measured
1 | COC(=O)CNC(=O)c1c(-c2ccccc2)[n+]([O-])c2ccccc2[n+]1[O-] [Compound 4a, N-(1,4-Dioxide-3-phenylquinoxaline-2-carbonyl)glycine methyl ester] | 103 ± 9.8 µM | 171 ± 8.5 µM | 26.3 µM | 55.5 µM | 850 µM | – | – | IC50 [1]: 12.6 ± 0.3 µM; CC50 (J774 murine macrophages; Table S3): 850 µM
2 | Cc1ccc2c(c1)[n+]([O-])c(-c1ccc(F)cc1)c(C(=O)NCC(=O)O)[n+]2[O-] [Compound 5m, 2-((Carboxymethyl)carbamoyl)-3-(4-fluorophenyl)-6-methylquinoxaline 1,4-dioxide] | – | – | – | – | – | 17.2 µM | 35.1 µM | IC50 ([2]; Leishmania donovani): > 270 µM; IC50 ([3]; Leishmania amazonensis): > 270 µM; L. amazonensis promastigote selectivity index (SI) [3]: > 30; CC50 at 24 h [5]: 8090 µM
3 | CC[C@@H](CO)NCCN[C@@H](CC)CO [Ethambutol, reference compound] | – | – | – | – | – | 1.56 µM | 32.8 µM | –
4 | COC(=O)CNC(=O)c1c(-c2ccc(C(F)(F)F)cc2)[n+]([O-])c2ccccc2[n+]1[O-] [Compound 4c] | > 238 µM | > 238 µM | 13.2 µM | 25.9 µM | 6960 µM | – | – | activity against L. donovani (in words) [2]: inactive; activity against L. amazonensis (in words) [3]: inactive
5 | COc1ccc2c(c1)[n+]([O-])c(-c1ccccc1)c(C(=O)NCC(=O)O)[n+]2[O-] [Compound 5f, 2-((Carboxymethyl)carbamoyl)-6-methoxy-3-phenylquinoxaline 1,4-dioxide] | – | – | – | – | – | 4.28 µM | 9.86 µM | IC50 ([2]; Leishmania donovani): > 271 µM; IC50 ([3]; Leishmania amazonensis): > 271 µM; L. amazonensis promastigote selectivity index (SI) [3]: > 30; CC50 at 24 h [5]: 8130 µM
6 | COc1ccc2c(c1)[n+]([O-])c(-c1ccccc1)c(C(=O)NCC(=O)OCc1ccccc1)[n+]2[O-] [Compound 4f, N-(6-Methoxy-1,4-dioxide-3-(phenyl)quinoxaline-2-carbonyl)glycine benzyl ester] | > 261 µM | > 261 µM | 21.9 µM | 47.9 µM | – | – | – | activity against L. donovani (in words) [2]: inactive; activity against L. amazonensis (in words) [3]: inactive
7 | NNC(=O)c1ccncc1 [Isoniazid, reference compound] | – | – | – | – | – | 0.18 µM | 0.29 µM | –
8 | CCc1nc(N)nc(N)c1-c1ccc(Cl)cc1 [Pyrimethamine, reference compound] | – | – | – | – | – | – | 75 µM | IC50 [4, 9]: 37.4 µM
9 | N[C@@H]1CON=C1O [Cycloserine, reference compound] | – | – | – | – | – | – | 13.5 µM | IC50 [4, 9]: 12.5 µM
10 | O=C(O)CNC(=O)c1c(-c2ccc(F)cc2)[n+]([O-])c2ccccc2[n+]1[O-] [Compound 5d, 2-((Carboxymethyl)carbamoyl)-3-(4-fluorophenyl)quinoxaline 1,4-dioxide] | – | – | – | – | – | – | – | IC50 ([2]; Leishmania donovani): > 280 µM; IC50 ([3]; Leishmania amazonensis): > 280 µM; L. amazonensis promastigote selectivity index (SI) [3]: > 3.0; CC50 at 24 h [5]: 840 µM
11 | COC(=O)CNC(=O)c1c(-c2ccccc2)[n+]([O-])c2cc(C(F)(F)F)ccc2[n+]1[O-] [Compound 4n, N-(1,4-Dioxide-6-trifluoromethyl-3-phenylquinoxaline-2-carbonyl)glycine methyl ester] | 43.5 ± 1.1 µM | 97.3 ± 4.3 µM | 11.9 µM | 27.9 µM | 191 ± 29.3 µM | – | – | –
12 | COC(=O)CNC(=O)c1c(-c2ccc(OC)cc2)[n+]([O-])c2ccccc2[n+]1[O-] [Compound 4b] | 261 ± 7.8 µM | 157 ± 7.8 µM | 40.6 µM | 69.8 µM | 1570 µM | – | – | –
13 | COC(=O)CNC(=O)c1c(-c2ccc(C)cc2)[n+]([O-])c2cc(OC)ccc2[n+]1[O-] [Compound 4j, N-(6-Methoxy-1,4-dioxide-3-(4-methylphenyl)quinoxaline-2-carbonyl)glycine methyl ester] | – | – | – | – | – | 12.9 µM | 24.6 µM | IC50 ([2]; Leishmania donovani): 13.8 ± 9.5 µM; L. donovani promastigote selectivity index (SI) ([2]; SI = CC50 (J774 macrophages)/IC50): 23.2; IC50 ([3]; Leishmania amazonensis): 111 ± 4 µM; L. amazonensis promastigote selectivity index (SI) [3]: 2.9; CC50 at 24 h [5]: 318.6 ± 0.84 µM
14 | N-(1,4-Dioxide-3-((4,5-dimethoxy-2-nitro-phenyl)quinoxaline-2-carbonyl)glycine benzyl ester [Compound 4e] | 34 ± 5.2 µM | 25.1 ± 0.56 µM | 25.2 µM | 47.9 µM | 18.5 ± 3.4 µM | – | – | toxicity to macrophages (in words) (J774 murine macrophages): highly toxic to macrophages
15 | COC(=O)CNC(=O)c1c(-c2ccc(C(F)(F)F)cc2)[n+]([O-])c2cc(C)ccc2[n+]1[O-] [Compound 4l, N-(6-Methyl-1,4-dioxide-3-(4-trifluoromethylphenyl)quinoxaline-2-carbonyl)glycine methyl ester] | – | > 230 µM | 7.2 µM | 15.5 µM | 1380 µM | – | – | activity against L. donovani (in words) [2]: inactive; activity against L. amazonensis (in words) [3]: inactive
16 | NCC[C@H](O)C(=O)N[C@@H]1C[C@H](N)[C@@H](O[C@H]2O[C@H](CN)[C@@H](O)[C@H](O)[C@H]2O)[C@H](O)[C@H]1O[C@H]1O[C@H](CO)[C@@H](O)[C@H](N)[C@H]1O [Amikacin, reference compound] | – | – | – | – | – | 0.07 µM | 0.08 µM | –
